Assay results published in publication PMC6768063 (Journal of computer-aided molecular design, 2019).

Legend:
[1] = molecular target: T1, D2 receptor (Homo sapiens, UniProt P14416); experiment: calcium flux assay; assay type: cell-based; conditions: for EC50: read-out: EC50, agonist effect (calcium flux), D2/CHO-K1 cells, agonist mode
[2] = molecular target: T1, D2 receptor; conditions: cited from earlier work
[3] = molecular target: T2, D1 receptor (Homo sapiens, UniProt P21728); experiment: cAMP assay; assay type: cell-based; conditions: for EC50: read-out: EC50, agonist effect (cAMP production), CHO-K1/D1 cells, agonist mode
T2 sequence (P21728 whole entry): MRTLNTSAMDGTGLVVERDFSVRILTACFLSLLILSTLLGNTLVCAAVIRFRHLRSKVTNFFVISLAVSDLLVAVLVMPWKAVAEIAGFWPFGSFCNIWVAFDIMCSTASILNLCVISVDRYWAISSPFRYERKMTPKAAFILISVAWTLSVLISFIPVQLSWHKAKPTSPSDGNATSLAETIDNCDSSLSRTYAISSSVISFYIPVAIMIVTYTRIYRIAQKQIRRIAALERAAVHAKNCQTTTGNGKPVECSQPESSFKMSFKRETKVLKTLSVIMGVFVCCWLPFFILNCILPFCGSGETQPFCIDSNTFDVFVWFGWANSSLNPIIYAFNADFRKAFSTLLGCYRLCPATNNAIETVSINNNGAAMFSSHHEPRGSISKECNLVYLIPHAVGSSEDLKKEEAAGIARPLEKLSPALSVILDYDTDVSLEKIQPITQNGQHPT

[4] = tested on: D3 receptor; conditions: cited from earlier work
[5] = molecular target: T1, D2 receptor; conditions: cited from earlier work; remark: listed apart in the source
[6] = tested on: 5-HT1A receptor; conditions: cited from earlier work
[7] = molecular target: T2, D1 receptor; conditions: cited from earlier work

T1 sequence (P14416 whole entry): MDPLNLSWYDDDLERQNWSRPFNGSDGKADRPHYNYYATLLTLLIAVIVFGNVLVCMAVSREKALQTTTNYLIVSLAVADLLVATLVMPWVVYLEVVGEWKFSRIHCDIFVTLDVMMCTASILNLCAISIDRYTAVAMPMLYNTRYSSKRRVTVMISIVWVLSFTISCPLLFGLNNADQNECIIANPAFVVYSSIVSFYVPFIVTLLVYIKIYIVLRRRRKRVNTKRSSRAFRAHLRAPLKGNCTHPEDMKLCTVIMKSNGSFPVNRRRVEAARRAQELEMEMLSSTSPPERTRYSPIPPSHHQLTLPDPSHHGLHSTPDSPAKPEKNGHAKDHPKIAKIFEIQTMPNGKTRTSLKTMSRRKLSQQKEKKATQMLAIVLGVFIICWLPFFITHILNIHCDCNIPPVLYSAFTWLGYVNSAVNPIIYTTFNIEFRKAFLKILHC

Structure (SMILES): CN1CCc2cc(Cl)c(O)cc2[C@@H](c2ccccc2)C1 [SCH23390, reference compound]
- IC50 [1]: 4.06 µM

Structure (SMILES): COc1cc2c(cc1OC)[C@H]1Cc3ccc(OC)c(OC)c3CN1CC2 [d-THP]
- binding affinity for the D2 receptor (in words) [2]: low or absent affinity

Structure (SMILES): COc1ccc2c(c1O)CN1CCc3cc4c(cc3C1C2)OCO4 (stereo not drawn) [d-TU, Tetrahydroberberrubine]
- affinity against D1 receptor (in words) ([3]; based on the cAMP assay): no affinity
- EC50 [3]: > 10 µM
- affinity against D2 receptor (in words) ([1]; based on the calcium flux assay): no affinity
- EC50 [1]: > 10 µM

Structure (SMILES): COc1cc2c(cc1OC)[C@@H]1Cc3ccc(OC)c(OC)c3CN1CC2 [l-THP, l-tetrahydropalmatine]
- binding affinity for the D2 receptor (in words) [2]: high binding affinity

Structure (SMILES): COc1ccc2c(c1O)CN1CCc3cc4c(cc3C1C2)OCO4 (stereo not drawn) [l-TU, Tetrahydroberberrubine]
- binding affinity for D3 receptor (in words) [4]: high binding affinities
- binding affinity for D2 receptor (in words) [5]: high binding affinities
- EC50 [3]: > 10 µM
- EC50 [1]: > 10 µM
- binding affinity for 5-HT1A receptor (in words) [6]: high binding affinities
- binding affinity for D1 receptor (in words) [7]: high binding affinities
